Assay [1] has as its system Candida albicans. Put plainly: Antifungal activity against Candida albicans assessed as inhibition of fungal growth. It is filed as functional, organism-based.
In assay [2] the test system is Nakaseomyces glabratus. Briefly: Antifungal activity against Candida glabrata MTCC 3019 assessed as inhibition of fungal growth incubated for 24 hrs by agar well diffusion method. It is filed as functional, organism-based. Conditions: MTCC 3019, 24 h. Background: In agar diffusion tests the substance spreads into inoculated agar from a disc or well.
In assay [3] the test system is Aspergillus flavus. Put plainly: Antifungal activity against Aspergillus flavus assessed as inhibition of fungal growth. It is filed as functional, organism-based.
Assay [4] concerns Fusarium oxysporum. Put plainly: Antifungal activity against Fusarium oxysporum assessed as inhibition of fungal growth. It is filed as functional, organism-based.
Assay [5] deals with Nakaseomyces glabratus. Briefly: Antifungal activity against Candida glabrata ATCC 90030 assessed as inhibition of microbial growth incubated for 24 hrs by broth microdilution method. It is filed as functional, organism-based. The conditions noted are these: ATCC 90030, 24 h. (Broth dilution looks for growth in wells or tubes with falling amounts of substance.)
The subject of assay [6] is Aspergillus fumigatus. Put plainly: Antifungal activity against Aspergillus fumigatus ATCC 13073 strain assessed as […] growth inhibition. It is filed as functional, organism-based.
Assay [7] concerns Cryptococcus neoformans. Put plainly: […] activity against Cryptococcus neoformans assessed as inhibition of […]. It is filed as functional, organism-based.
For assay [8], the system named is [Candida] auris. Briefly: Antifungal activity against Candida auris assessed as inhibition of fungal growth. It is filed as functional, organism-based. The conditions noted are these: Candidozyma auris.
Assay [9] has as its system Rhizopus arrhizus. Briefly: Antifungal activity against Rhizopus arrhizus assessed as fungal growth inhibition. It is filed as functional, organism-based.
Assay [10] has as its system Mycobacterium tuberculosis. Put plainly: Antimycobacterial activity against Mycobacterium tuberculosis HN878 assessed as inhibition of mycobacterial growth incubated for 5 days. It is filed as functional. Conditions: HN878, 120 h, time 5 day.

IC50 and MIC99 data for 2 compounds are collected here from ChEMBL document CHEMBL5376023, “The allure of targets for novel drugs” (RSC Med Chem, 2024).

Values after ≈ are worked out from the molar mass of the structure shown.

One may read the IC50 as the point on the concentration scale where inhibition reaches its midpoint. On to `CN(C)c1ccc(/C=C/c2ccc(C(=O)Nc3cc(C(=O)Nc4cc(C(=O)NCCC(=N)N)n(C)c4)n(C)c3)cn2)cc1`, for which the IC50 was 0.8 µg/mL (≈ 1.38 µM) in assay [1]; 0.8 µg/mL (≈ 1.38 µM) in assay [2]; 0.8 µg/mL (≈ 1.38 µM) in assay [3]; 0.8 µg/mL (≈ 1.38 µM) in [4]; 0.8 µg/mL in assay [5]; 0.8 µg/mL (≈ 1.38 µM) in assay [6]. In addition, the IC50 in [7], in assay [8] and in assay [9] was 0.8 µg/mL (≈ 1.38 µM) each time.
One may read the MIC99 as an inhibitory concentration at the 99% level, which refers to growth in some studies and to a panel of isolates in others. Take `Cn1cc(NC(=O)c2cc(NC(=O)c3ccc(/C=C/c4ccc(C(F)(F)F)cc4)cc3)cn2C)cc1C(=O)NCCC(=N)N`: the MIC99 in [10] was determined as 1.56 µM (≈ 0.945 µg/mL).
